Measurements reported in ChEMBL document CHEMBL1157516, “Discovery of a novel, potent and orally active series of gamma-lactams as selective NK1 antagonists” (Bioorg Med Chem Lett, 2008).

How the values were obtained:
[1] = molecular target: T1, Substance-K receptor (Homo sapiens) (UniProt P21452); assay: Displacement of [3H]Neurokinin A from human recombinant NK2 receptor expressed in CHO cells at 3 uM; type: cell-based
T1 sequence (whole entry): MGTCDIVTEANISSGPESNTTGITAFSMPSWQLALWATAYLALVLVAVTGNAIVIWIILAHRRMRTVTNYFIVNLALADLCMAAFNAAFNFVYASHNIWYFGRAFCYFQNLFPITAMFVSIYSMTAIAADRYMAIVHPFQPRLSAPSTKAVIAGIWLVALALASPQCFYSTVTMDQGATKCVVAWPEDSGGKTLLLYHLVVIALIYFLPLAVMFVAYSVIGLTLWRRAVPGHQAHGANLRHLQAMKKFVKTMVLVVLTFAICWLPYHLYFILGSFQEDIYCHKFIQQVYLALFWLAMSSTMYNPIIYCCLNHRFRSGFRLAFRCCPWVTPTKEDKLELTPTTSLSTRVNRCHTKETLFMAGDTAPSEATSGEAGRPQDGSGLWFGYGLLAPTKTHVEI

Substance-P receptor = Substance-P receptor (Homo sapiens, UniProt P25103); assay: Displacement of [3H]Sar-Met substance P from human recombinant NK1 receptor expressed in CHO cells; type: cell-based
[2] = molecular target: T2, Neuromedin-K receptor (Homo sapiens) (UniProt P29371); assay: Displacement of [125I]neurokinin B from human recombinant NK3 receptor expressed in CHO cells at 10 uM; type: cell-based
T2 sequence (whole entry): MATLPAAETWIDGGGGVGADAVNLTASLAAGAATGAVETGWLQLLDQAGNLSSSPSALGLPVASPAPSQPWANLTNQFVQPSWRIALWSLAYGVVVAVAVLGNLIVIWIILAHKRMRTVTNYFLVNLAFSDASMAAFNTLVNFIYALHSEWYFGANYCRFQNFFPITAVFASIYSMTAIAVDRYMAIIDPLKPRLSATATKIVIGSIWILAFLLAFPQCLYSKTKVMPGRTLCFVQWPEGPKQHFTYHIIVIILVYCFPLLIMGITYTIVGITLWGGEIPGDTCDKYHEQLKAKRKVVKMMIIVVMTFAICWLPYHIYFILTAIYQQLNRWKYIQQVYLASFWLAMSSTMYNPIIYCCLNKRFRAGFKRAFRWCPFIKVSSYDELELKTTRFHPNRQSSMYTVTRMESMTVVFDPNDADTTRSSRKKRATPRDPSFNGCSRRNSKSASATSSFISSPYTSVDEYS

Meriones unguiculatus [3] = assay: Inhibition of GR-73632-induced foot tapping in Mongolian gerbil assessed as decrease in duration of foot tapping at 1 mg/kg, po after 2 hrs; type: functional
Meriones unguiculatus [4] = assay: Inhibition of GR-73632-induced foot tapping in Mongolian gerbil assessed as decrease in duration of foot tapping at 1 mg/kg, po after 4 hrs; type: functional
Meriones unguiculatus [5] = assay: Inhibition of GR-73632-induced foot tapping in Mongolian gerbil assessed as decrease in duration of foot tapping at 1 mg/kg, po after 6 hrs; type: functional
Neuromedin-K receptor = molecular target: T3, Neuromedin-K receptor (Homo sapiens, UniProt P29371); assay: Displacement of [125I]neurokinin B from human recombinant NK3 receptor expressed in CHO cells; type: cell-based
T3 sequence (P29371 whole entry): T2 sequence (whole entry)

Sequence of Substance-P receptor (P25103 whole entry): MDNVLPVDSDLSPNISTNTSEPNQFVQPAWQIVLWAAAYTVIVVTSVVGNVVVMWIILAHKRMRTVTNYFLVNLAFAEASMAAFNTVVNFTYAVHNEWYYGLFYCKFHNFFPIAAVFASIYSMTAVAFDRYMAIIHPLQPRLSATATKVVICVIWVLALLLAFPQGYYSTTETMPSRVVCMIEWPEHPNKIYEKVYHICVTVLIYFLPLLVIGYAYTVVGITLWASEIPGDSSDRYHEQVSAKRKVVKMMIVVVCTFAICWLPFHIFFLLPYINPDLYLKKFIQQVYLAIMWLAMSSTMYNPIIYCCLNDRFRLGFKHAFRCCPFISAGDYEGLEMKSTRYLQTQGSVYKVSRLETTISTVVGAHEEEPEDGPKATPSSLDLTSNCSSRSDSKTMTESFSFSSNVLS

Row | Compound | inhibition [1] | Ki (Substance-P receptor) | inhibition [2] | inhibition in vivo at 1 mg/kg (Meriones unguiculatus [3]) | inhibition in vivo at 1 mg/kg (Meriones unguiculatus [4]) | inhibition in vivo at 1 mg/kg (Meriones unguiculatus [5]) | Ki (Neuromedin-K receptor)
1 | CC(=O)N[C@H]1C[C@@](CO[C@H](C)c2cc(C(F)(F)F)cc(C(F)(F)F)c2)(c2ccccc2)NC1=O | 1.4% | 0.3 nM | 43% | 94% | 94% | 91% | –
2 | C[C@@H]1C[C@@](CO[C@H](C)c2cc(C(F)(F)F)cc(C(F)(F)F)c2)(c2ccccc2)NC1=O | – | 2 nM | – | 11% | 2% | 36% | –
3 | C[C@@H](OC[C@@]1(c2ccccc2)CCC(=O)N1)c1cc(C(F)(F)F)cc(C(F)(F)F)c1 | 0.1% | 0.6 nM | – | 92% | 78% | 47% | 3810 nM
4 | C[C@@H](OC[C@@]1(c2ccccc2)C[C@@H](N2CCCC2=O)C(=O)N1)c1cc(C(F)(F)F)cc(C(F)(F)F)c1 | – | 0.5 nM | – | 49% | 46% | 39% | –
5 | C[C@@H](OC[C@@]1(c2ccccc2)C[C@H](N2CCCCC2=O)C(=O)N1)c1cc(C(F)(F)F)cc(C(F)(F)F)c1 | – | 0.2 nM | – | 74% | 37% | 63% | –
6 | C[C@@H](OC[C@@]1(c2ccccc2)C[C@H](N2CCCC2)C(=O)N1)c1cc(C(F)(F)F)cc(C(F)(F)F)c1 | – | 0.4 nM | – | 78% | 60% | 45% | –
7 | CCC(=O)N[C@@H]1C[C@@](CO[C@H](C)c2cc(C(F)(F)F)cc(C(F)(F)F)c2)(c2ccccc2)NC1=O | – | 0.3 nM | – | 83% | 16% | 19% | –
8 | C[C@@H](OC[C@@]1(c2ccccc2)C[C@@H](NS(C)(=O)=O)C(=O)N1)c1cc(C(F)(F)F)cc(C(F)(F)F)c1 | – | 2.6 nM | – | 0% | 15% | 0% | –
9 | C[C@@H](OC[C@@]1(c2ccccc2)C[C@H](NS(C)(=O)=O)C(=O)N1)c1cc(C(F)(F)F)cc(C(F)(F)F)c1 | – | 0.6 nM | – | 10% | 58% | 43% | –
10 | C[C@@H](OC[C@@]1(c2ccccc2)CC(N)C(=O)N1)c1cc(C(F)(F)F)cc(C(F)(F)F)c1 (stereo partly drawn) | – | 0.4 nM | – | 5% | 13% | 11% | –
11 | C[C@@H](OC[C@@]1(c2ccccc2)CNC(=O)N1)c1cc(C(F)(F)F)cc(C(F)(F)F)c1 | – | – | – | 35% | 57% | 48% | –
12 | CCC(=O)N[C@H]1C[C@@](CO[C@H](C)c2cc(C(F)(F)F)cc(C(F)(F)F)c2)(c2ccccc2)NC1=O | – | 0.3 nM | – | 84% | 97% | 90% | –
13 | C[C@@H](OC[C@@]1(c2ccccc2)C[C@H](N2CCCC2=O)C(=O)N1)c1cc(C(F)(F)F)cc(C(F)(F)F)c1 | 28% | 0.2 nM | – | 100% | 100% | 98% | 1250 nM
14 | CC(=O)N[C@@H]1C[C@@](CO[C@H](C)c2cc(C(F)(F)F)cc(C(F)(F)F)c2)(c2ccccc2)NC1=O | – | 0.9 nM | – | 80% | 97% | 71% | –
15 | C[C@@H](OC[C@@]1(c2ccccc2)CC(O)C(=O)N1)c1cc(C(F)(F)F)cc(C(F)(F)F)c1 (stereo partly drawn) | – | 0.5 nM | – | 27% | 35% | 1% | –
16 | C[C@@H](OC[C@@]1(c2ccccc2)C[C@@H](N2CCCCC2=O)C(=O)N1)c1cc(C(F)(F)F)cc(C(F)(F)F)c1 | – | 0.2 nM | – | 20% | 26% | 56% | –
17 | C[C@H]1C[C@@](CO[C@H](C)c2cc(C(F)(F)F)cc(C(F)(F)F)c2)(c2ccccc2)NC1=O | – | 0.7 nM | – | 77% | 85% | 44% | –
